The record followed here is ChEMBL document CHEMBL1857833, “Screening and optimization of specific chemical series against human African Trypanosomiasis (HAT)”.

Converted amounts (≈) assume the structure as drawn. “And” between values parts separate entries of the source, which are not always exact repeats. Identical values can stand only once.

Data set [1] can be described thus: DNDI: Cytotoxicity against L929 mouse fibroblasts, 72 hour. Type of data set: toxicity, cell-based. As to conditions: mouse, L929 mouse fibroblasts.
Data set [2] can be described thus: in vitro. As to conditions: mouse, liver microsomes, t (1 / 2). A general note: Liver microsomes are vesicles of endoplasmic reticulum, rich in cytochrome P450 enzymes.
Description: DNDI: half life in mouse liver microsomes at a concentration of 1uM
For data set [3], the system named is Trypanosoma brucei. The experiment in a line: DNDI: Inhibition of Human African Trypanosomiasis, SBRI 427, in vitro. In kind it is functional, organism-based.
For data set [4] the following is noted: mouse, microsomes, 1 µM.
Description: DNDI: in vitro intrinsic clearance in mouse liver microsomes at a concentration of 1uM
A short description of data set [5]: DNDI: Cytotoxicity against L929 mouse fibroblasts, CYTO-SP, 24 hour. In kind it is toxicity, cell-based. As to conditions: mouse, L929 mouse fibroblasts.
The nature of data set [6]: DNDI: Solubility in phosphate buffered saline at pH7.4 measured by nephelometry at room temperature (NEPH-RT). In kind it is physicochemical. The settings on record: pH 7.4.
Data set [7] is described as follows: DNDI: Lipophilicity measured in Chromatographic hydrophobicity index (CHI) assay, pH 7.4. Type of data set: physicochemical. The settings on record: buffer.
[8] abbreviates: Trypanosoma brucei, SBRI 427, read-out: IC50.

`CCCCCOc1ccc(-c2nc(CNC3[C@H]4C[C@@H]5C[C@@H](C[C@H]3C5)C4)co2)cc1` (stereo not given in full) came in with an IC50 at 72 h in data set [1] of less than 3.13 µg/mL. Further, the half-life at 1 µM in data set [2] was found to be 32 min. In addition, the half-inhibitory concentration (IC50) in data set [3] (setting [8]) is 0.3 µg/mL (≈ 0.76 µM). For the same compound, the CLint in vitro in data set [4] was 27 µL/min/mg. The half-maximal inhibitory concentration (IC50) at 24 h in data set [5] is more than 50 µg/mL.

In turn, `CCc1ccccc1N/C(=N\O)c1ccccc1-c1ccccc1` had a half-life at 1 µM in data set [2] of 4 min. For the same compound, the IC50 in data set [3] (setting [8]) was more than 5 µg/mL. The CLint in vitro in data set [4] was found to be 209 µL/min/mg. For the same compound, in data set [5], it took 16.3 µg/mL (≈ 51.5 µM) to reach half-maximal inhibition (IC50 at 24 h).

In data set [1], `CN1CC(OC(=O)c2ccccc2)=CC1=O` gave an IC50 at 72 h of more than 10 µg/mL. Moreover, the IC50 in data set [3] (setting [8]) was more than 5 µg/mL. In data set [6], this compound returned a kinetic solubility of more than 200 µM. Further, in data set [7], the chromatographic logD came out at 2.34.

Compound `CCCOc1ccc(-c2nc(CN[C@@H]3C[C@@H]4C[C@H]([C@H]3C)C4(C)C)co2)cc1` came in with an IC50 at 72 h in data set [1] of less than 3.13 µg/mL. Besides, in data set [2], the half-life at 1 µM stood at 28 min. Further, in data set [3] (setting [8]), the IC50 amounted to 0.49 µg/mL (≈ 1.33 µM). Also, the CLint in vitro in data set [4] is 30 µL/min/mg. Moreover, in data set [5], the IC50 at 24 h amounted to 15.7 µg/mL (≈ 42.7 µM).

In turn, `FC(F)(F)c1ccc(CNC(c2nc(Cc3ccccc3)c(N3CCOCC3)o2)C2CC2)cc1` (stereo not given) displayed a concentration for half-maximal inhibition (IC50) at 72 h in data set [1] of more than 10 µg/mL. The IC50 in data set [3] (setting [8]) was determined as 4.53 µg/mL (≈ 9.61 µM). In addition, the kinetic solubility in data set [6] was 6 µM (≈ 2.83 µg/mL).

`O/N=C(\NC1CCCCC1)c1ccc(-c2ccccc2)cc1` had a half-life at 1 µM in data set [2] of 3 min. For the same compound, the IC50 in data set [3] (setting [8]) was more than 5 µg/mL. The CLint in vitro in data set [4] worked out at 280 µL/min/mg. The same compound returned a half-inhibitory concentration (IC50) at 24 h in data set [5] of 36 µg/mL (≈ 122 µM).

In data set [1], `COc1cccc(OC)c1CNCc1coc(-c2ccc(C(C)(C)C)cc2)n1` returned a 50% inhibitory concentration (IC50) at 72 h of 2.07 µg/mL (≈ 5.44 µM). In addition, in data set [3], the IC50 is 1.43 µg/mL and 0.89 µg/mL and 2.17 µg/mL. Moreover, it took 43.2 µg/mL (≈ 114 µM) to reach half-maximal inhibition in data set [5] (IC50 at 24 h). Further, the kinetic solubility in data set [6] amounted to 1 µM (≈ 0.38 µg/mL).

In the case of `Cc1ccc(CNC(c2nc(-c3ccccc3)c(N3CCCCC3)o2)C2CC2)cc1` (stereo not given), the IC50 at 72 h in data set [1] was more than 10 µg/mL. Also, in data set [3] (setting [8]), the half-maximal inhibitory concentration (IC50) stood at 4.56 µg/mL (≈ 11.4 µM). The kinetic solubility in data set [6] is 3 µM (≈ 1.2 µg/mL). In addition, the chromatographic logD in data set [7] is more than 5.2.

As to `CCN(CC)CCCNc1cc(-c2ccccc2)nc2cc(-c3ccc(F)cc3)nn12`, in data set [1], the IC50 at 72 h was 3.05 µg/mL (≈ 7.3 µM). In addition, the half-inhibitory concentration (IC50) in data set [3] (setting [8]) is 2.46 µg/mL (≈ 5.89 µM). The solubility (kinetic) in data set [6] turned out to be 25 µM (≈ 10.4 µg/mL). In data set [7], this compound returned a chromatographic logD of 4.84.

In turn, `COc1ccc(C(=O)OC2=CC(=O)N(C)C2)cc1` registered an IC50 at 72 h in data set [1] of more than 10 µg/mL. The half-maximal inhibitory concentration (IC50) in data set [3] (setting [8]) was more than 5 µg/mL. The kinetic solubility in data set [6] is more than 200 µM. Also, the chromatographic logD in data set [7] worked out at 2.72.

As to `O/N=C(\NC1CCCCC1)C1CCCCC1`, the IC50 in data set [3] (setting [8]) was more than 5 µg/mL. The IC50 at 24 h in data set [5] was more than 50 µg/mL. In data set [6], this compound showed a kinetic solubility of more than 200 µM. This compound yielded a chromatographic logD in data set [7] of 4.41.

`Cc1cccc(-c2nc(CNCCC3CCCN3C)c(C)o2)c1` (stereo not given): half-maximal inhibition in data set [1] (IC50 at 72 h) required 9.29 µg/mL (≈ 29.6 µM). The IC50 in data set [3] (setting [8]) came to 0.55 µg/mL (≈ 1.75 µM). Also, the kinetic solubility in data set [6] was more than 200 µM. The chromatographic logD in data set [7] is 3.3.

The compound `CC(C)CNC(CCc1ccccc1)c1nc(Cc2ccccc2)c(N2CCCCC2)o1` (stereo not given) returned an IC50 at 72 h in data set [1] of more than 10 µg/mL. The half-life at 1 µM in data set [2] is 3 min. In data set [3] (setting [8]), the IC50 was more than 5 µg/mL. In addition, the CLint in vitro in data set [4] stood at 307 µL/min/mg. For the same compound, in data set [6], the kinetic solubility amounted to 6 µM (≈ 2.59 µg/mL).

Compound `O/N=C(\NC1CCCCC1)c1cccnc1Oc1c(F)cccc1F` had a concentration for half-maximal inhibition (IC50) at 72 h in data set [1] of more than 10 µg/mL. The compound also showed a half-life at 1 µM in data set [2] of 2 min. Moreover, the IC50 in data set [3] was 0.48 µg/mL (≈ 1.38 µM); in data set [3] (setting [8]), 0.46 µg/mL (≈ 1.32 µM). In data set [4], this compound returned a CLint in vitro of 351 µL/min/mg. In data set [5], this compound showed a half-inhibitory concentration (IC50) at 24 h of more than 50 µg/mL.

With `O=C(NC1CCCCC1)c1ccccc1-c1ccccc1`, in data set [2], the half-life at 1 µM was found to be 7 min. Further, the IC50 in data set [3] (setting [8]) was more than 5 µg/mL. This compound showed a CLint in vitro in data set [4] of 116 µL/min/mg. Moreover, the IC50 at 24 h in data set [5] is more than 50 µg/mL.

In the case of `CCC(C)C(NCc1ccccc1OC)c1nc(-c2ccccc2)c(N2CCOCC2)o1` (stereo not given), the half-inhibitory concentration (IC50) at 72 h in data set [1] is more than 10 µg/mL. Moreover, in data set [2], the half-life at 1 µM was found to be 2 min. In addition, the half-inhibitory concentration (IC50) in data set [3] (setting [8]) was 4.06 µg/mL (≈ 9.32 µM). Moreover, in data set [4], the CLint in vitro came to 440 µL/min/mg. In data set [6], this compound displayed a kinetic solubility of 6 µM (≈ 2.61 µg/mL).

For the compound `CCCCCC(C)NCc1coc(-c2cc(OC)cc(OC)c2)n1` (stereo not given), the midpoint of inhibition in data set [1], the IC50 at 72 h, lay at 4.75 µg/mL (≈ 14.3 µM). Moreover, the concentration for half-maximal inhibition (IC50) in data set [3] (setting [8]) was 1.25 µg/mL (≈ 3.76 µM). In data set [6], this compound yielded a kinetic solubility of 6 µM (≈ 1.99 µg/mL).

Regarding `CCCCCC(C)NCc1coc(-c2ccc(C)c(OC)c2)n1` (stereo not given), inhibition in data set [1] was half-maximal at 5.27 µg/mL (≈ 16.7 µM) (IC50 at 72 h). The half-life at 1 µM in data set [2] came out at 10 min. In addition, the IC50 in data set [3] (setting [8]) came out at 1.6 µg/mL (≈ 5.06 µM). In data set [4], this compound came in with a CLint in vitro of 87 µL/min/mg.

On to `N=C(NC1CCCCC1)c1ccccc1-c1ccccc1`, for which, in data set [3] (setting [8]), the IC50 is more than 5 µg/mL. The compound further returned an IC50 at 24 h in data set [5] of more than 50 µg/mL. The same compound showed a kinetic solubility in data set [6] of more than 200 µM. The chromatographic logD in data set [7] turned out to be 2.87.

As a reminder, the IC50 is the concentration at which inhibition is half-maximal. For orientation: half-life means how long it takes for the measured level to halve. For orientation: kinetic solubility means solubility judged after dilution from a stock solution rather than from solid. What is called chromatographic logD is a lipophilicity value derived from retention on a column. The low end stands for a more hydrophilic compound, the high end for a more lipophilic compound.
